Substitutions are numbered along the chain they refer to. Where “and” joins values, the source holds several entries; their conditions need not be identical. Equal values may be shown once.
Experiments:
Assay in all cases: biochemical
[1] = biological target: T1, recombinant wildtype and mutated PPO (Amaranthus PPO2: PPX2L_WC SEQ ID NO 2, PPX2L_AC SEQ ID NO 4, dG210 SEQ ID NO 6 & 8) (Amaranthus tuberculatus, UniProt Q0NZW9, D133A/F420L/R128F); settings: IC50 (M)
T1 sequence (Q0NZW9 1-534 R128F/D133A/F420L): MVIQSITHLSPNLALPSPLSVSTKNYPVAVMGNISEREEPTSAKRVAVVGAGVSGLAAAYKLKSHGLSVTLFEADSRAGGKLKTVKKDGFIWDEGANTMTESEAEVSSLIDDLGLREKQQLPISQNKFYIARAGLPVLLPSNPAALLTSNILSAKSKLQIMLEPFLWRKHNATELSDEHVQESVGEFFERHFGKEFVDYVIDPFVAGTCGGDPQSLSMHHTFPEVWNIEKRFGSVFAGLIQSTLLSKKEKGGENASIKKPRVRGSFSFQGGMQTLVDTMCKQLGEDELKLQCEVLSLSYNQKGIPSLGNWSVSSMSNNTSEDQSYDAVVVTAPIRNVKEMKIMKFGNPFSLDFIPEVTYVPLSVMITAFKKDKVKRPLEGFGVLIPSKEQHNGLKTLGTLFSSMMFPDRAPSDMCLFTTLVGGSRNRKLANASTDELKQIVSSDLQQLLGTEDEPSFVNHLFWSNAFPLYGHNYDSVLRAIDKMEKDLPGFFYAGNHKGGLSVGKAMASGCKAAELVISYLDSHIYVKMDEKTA

[2] = biological target: T2, recombinant wildtype and mutated PPO (Amaranthus PPO2: PPX2L_WC SEQ ID NO 2, PPX2L_AC SEQ ID NO 4, dG210 SEQ ID NO 6 & 8) (Amaranthus tuberculatus, UniProt Q0NZW9, D133A/F420M/R128F); settings: IC50 (M)
T2 sequence (Q0NZW9 1-534 R128F/D133A/F420M): T1 sequence (Q0NZW9 1-534 R128F/D133A/F420L) with L420M

[3] = biological target: T3, recombinant wildtype and mutated PPO (Amaranthus PPO2: PPX2L_WC SEQ ID NO 2, PPX2L_AC SEQ ID NO 4, dG210 SEQ ID NO 6 & 8) (Amaranthus tuberculatus, UniProt Q0NZW9, D133A/F420M/R128Q); settings: IC50 (M)
T3 sequence (Q0NZW9 1-534 R128Q/D133A/F420M): T1 sequence (Q0NZW9 1-534 R128F/D133A/F420L) with F128Q, L420M

[4] = biological target: T4, recombinant wildtype and mutated PPO (Amaranthus PPO2: PPX2L_WC SEQ ID NO 2, PPX2L_AC SEQ ID NO 4, dG210 SEQ ID NO 6 & 8) (Amaranthus tuberculatus, UniProt Q0NZW9)
T4 sequence (Q0NZW9 1-534): T1 sequence (Q0NZW9 1-534 R128F/D133A/F420L) with F128R, A133D, L420F

[5] = biological target: recombinant wildtype and mutated PPO (Amaranthus PPO2: PPX2L_WC SEQ ID NO 2, PPX2L_AC SEQ ID NO 4, dG210 SEQ ID NO 6 & 8) (Amaranthus tuberculatus, UniProt Q0NZW9, R128A/F420V, form not given)
Sequence of recombinant wildtype and mutated PPO (Amaranthus PPO2: PPX2L_WC SEQ ID NO 2, PPX2L_AC SEQ ID NO 4, dG210 SEQ ID NO 6 & 8) (Amaranthus tuberculatus, UniProt Q0NZW9, R128A/F420V, form not given) (Q0NZW9 1-534 R128A/F420V, form open): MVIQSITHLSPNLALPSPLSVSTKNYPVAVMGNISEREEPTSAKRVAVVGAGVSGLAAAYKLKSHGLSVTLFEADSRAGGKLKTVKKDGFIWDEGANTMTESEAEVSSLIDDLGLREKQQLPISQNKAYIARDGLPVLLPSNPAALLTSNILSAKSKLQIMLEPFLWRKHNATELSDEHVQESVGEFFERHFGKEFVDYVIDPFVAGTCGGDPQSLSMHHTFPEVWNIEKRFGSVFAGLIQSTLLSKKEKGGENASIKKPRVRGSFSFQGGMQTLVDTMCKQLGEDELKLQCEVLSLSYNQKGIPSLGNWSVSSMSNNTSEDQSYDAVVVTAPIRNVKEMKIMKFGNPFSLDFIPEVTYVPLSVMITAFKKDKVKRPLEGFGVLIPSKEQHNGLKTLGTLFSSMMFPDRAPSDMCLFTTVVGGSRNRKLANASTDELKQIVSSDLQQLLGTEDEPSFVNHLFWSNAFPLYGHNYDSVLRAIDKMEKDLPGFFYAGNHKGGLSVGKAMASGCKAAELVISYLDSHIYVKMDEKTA

[6] = tested on: recombinant wildtype and mutated PPO (Amaranthus PPO2: PPX2L_WC SEQ ID NO 2, PPX2L_AC SEQ ID NO 4, dG210 SEQ ID NO 6 & 8); design: species or system Amaranthus tuberculatus

Row | Structure (SMILES) | IC50 [1] [M] | IC50 [2] [M] | IC50 [3] [M] | IC50 [4] [nM] | IC50 [5] [nM] | inhibition (%) at 1 × 10−5M [6]
1 | C#CCN1C(=O)C(F)(F)Oc2cc(F)c(-n3c(=O)n(C)c(=S)n(C)c3=O)cc21 | 1.01e-06 | 1.21e-07 | 1.07e-08 |  |  | 
2 | C#CCN1C(=O)C(F)(F)Oc2cc(F)c(-n3c(=O)cc(C(F)(F)F)n(C)c3=O)cc21 |  |  |  | 0.315 | 6.33 | 
3 | C#CCN1C(=O)C(F)(F)Oc2cc(F)c(N3C(=O)C4=C(CCCC4)C3=O)cc21 |  |  |  | 0.146 | 274 | 
4 | COC(Oc1ccccc1Oc1cc(-n2c(=O)cc(C(F)(F)F)n(C)c2=O)c(F)cc1Cl)C(=O)OC1CCCCC1 (stereo not shown) | 1.18e-06 | 6.26e-08 | 1.72e-07 |  |  | 
5 | COC(=O)C(OC)Oc1ccccc1Oc1cc(-n2c(=O)cc(C(F)(F)F)n(C)c2=O)c(F)cc1Cl (stereo not shown) | 4.84e-08 | 2.81e-09 | 7.14e-08 | 0.411 |  | 
6 | O=C(O)c1cc(Oc2ccc(C(F)(F)F)cc2Cl)ccc1[N+](=O)[O-] [ACIFLUORFEN] |  |  |  |  |  | 39% and 33% and 27%
7 | C#CCN1C(=O)COc2cc(F)c(N3C(=O)C4=C(CCCC4)C3=O)cc21 [Flumioxazin, flumioxazin] |  |  |  |  |  | 41% and 48% and 30%
